Where a SMILES comes first, the peptide text is derived from it. Bridges are numbered along the chain shown (N, C = ends). Where no end group is shown, it is not given here.
Biological target: T1, rat PAC1 receptor (Rattus norvegicus, UniProt P32215)
T1 construct: SHSY-5Y (human neuroblastoma cell line) and RG-2 (rat glioma cell line) cells endogenously express human and rat PAC1 receptors, respectively; endogenous in cells; host or cells: RG-2 rat glioma cells
T1 sequence (P32215 20-523): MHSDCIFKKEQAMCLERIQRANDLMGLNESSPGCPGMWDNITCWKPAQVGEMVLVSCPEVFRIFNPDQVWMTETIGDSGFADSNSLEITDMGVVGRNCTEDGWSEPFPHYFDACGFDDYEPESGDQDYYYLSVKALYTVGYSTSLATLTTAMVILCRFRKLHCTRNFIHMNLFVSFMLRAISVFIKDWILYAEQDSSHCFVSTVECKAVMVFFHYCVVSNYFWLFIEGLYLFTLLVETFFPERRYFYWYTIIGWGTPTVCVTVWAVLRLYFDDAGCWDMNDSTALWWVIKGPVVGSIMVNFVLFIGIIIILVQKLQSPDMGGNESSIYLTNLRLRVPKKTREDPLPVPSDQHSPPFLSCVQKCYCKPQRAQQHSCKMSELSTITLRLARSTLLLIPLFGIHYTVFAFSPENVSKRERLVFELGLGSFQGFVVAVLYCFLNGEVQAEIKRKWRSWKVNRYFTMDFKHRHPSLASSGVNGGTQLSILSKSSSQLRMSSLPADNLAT
Test: LANCE Ultra cAMP accumulation antagonist assay in RG-2 cells;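 also: RG-2 rat glioma cells endogenously expressing PAC1, test peptide preincubated 30 min, then PAC1 agonist added at its EC80 for 15 min, cAMP accumulation read by LANCE Ultra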
Format: cell-based

Molecule	IC50 [nM]
CC[C@H](C)[C@H](NC(=O)[C@H](C)NC(=O)[C@H](CCCCN)NC(=O)[C@H](CCCNC(=N)N)NC(=O)[C@H](Cc1ccccc1)NC(=O)[C@H](CCC(N)=O)NC(=O)[C@@H]1CSSC[C@H](N)C(=O)N[C@@H](CC(=O)O)C(=O)N[C@@H](C)C(=O)N[C@@H]([C@@H](C)O)C(=O)N1)C(=O)N[C@@H](CC(=O)O)C(=O)N[C@@H](CC(=O)O)C(=O)N[C@H]1CSSC[C@@H](C(=O)N[C@@H](CCSC)C(=O)N[C@@H](CCCCN)C(=O)N[C@@H](CCC(N)=O)C(=O)N[C@@H](CCCCN)C(=O)N[C@@H](CCCCN)C(=O)N[C@@H](CCCCN)C(=O)N[C@@H](CCC(=O)O)C(=O)N[C@@H](Cc2c[nH]c3ccccc23)C(=O)N[C@@H](CCCCN)C(=O)N[C@@H](C)C(=O)NCC(=O)N[C@@H](Cc2c[nH]cn2)C(=O)O)NC(=O)[C@H](C)NC(=O)[C@H](CCCCN)NC(=O)[C@H](Cc2ccccc2)NC(=O)[C@H](C)NC(=O)[C@H](C)NC1=O [compound 443] (H-CDATCQFRKAIDDCAAFKACMKQKKKEWKAGH-OH; disulfide 1-5, 14-20)	> 100
CC[C@H](C)[C@H](NC(=O)[C@H](C)NC(=O)[C@H](CCCCN)NC(=O)[C@H](CCCNC(=N)N)NC(=O)[C@H](Cc1ccccc1)NC(=O)[C@H](CCC(N)=O)NC(=O)[C@@H]1CSSC[C@H](N)C(=O)N[C@@H](CC(=O)O)C(=O)N[C@@H](C)C(=O)N[C@@H]([C@@H](C)O)C(=O)N1)C(=O)N[C@@H](CC(=O)O)C(=O)N[C@@H](CC(=O)O)C(=O)N[C@H]1CSSC[C@@H](C(=O)N[C@@H](CCSC)C(=O)N[C@@H](CCCCN)C(=O)N[C@@H](CCC(N)=O)C(=O)N[C@@H](CCCCN)C(=O)N[C@@H](CCCCN)C(=O)N[C@@H](CCCCN)C(=O)N[C@@H](CCC(=O)O)C(=O)N[C@@H](Cc2c[nH]c3ccccc23)C(=O)N[C@@H](CCCCN)C(=O)N[C@@H](C)C(=O)NCC(N)=O)NC(=O)[C@H](C)NC(=O)[C@H](CCCCN)NC(=O)[C@H](Cc2ccccc2)NC(=O)[C@H](C(C)C)NC(=O)[C@H](CO)NC(=O)[C@H](CC(N)=O)NC(=O)[C@H](CO)NC(=O)[C@H](Cc2c[nH]cn2)NC(=O)[C@H](Cc2ccc(O)cc2)NC(=O)[C@H](C)NC(=O)[C@H](CCC(N)=O)NC(=O)[C@H](CCCNC(=N)N)NC(=O)[C@H](C)NC1=O [compound 429] (H-CDATCQFRKAIDDCARQAYHSNSVFKACMKQKKKEWKAG-NH2; disulfide 1-5, 14-28)	< 0.01
CDATCQFRKAIDDCQKQAHHSNVPGSVFKACMKQKKKEFKAGR (disulfide 1-5, 14-31) [compound 170]	0.01 to 1
CSCC[C@H](NC(=O)[C@H](C)NC(=O)[C@@H](NC(=O)[C@H](CCCCN)NC(=O)[C@H](CCCCN)NC(=O)[C@H](Cc1ccc(O)cc1)NC(=O)[C@H](CC(C)C)NC(=O)[C@H](CO)NC(=O)[C@H](C)NC(=O)[C@@H](NC(=O)[C@H](CC(C)C)NC(=O)CNC(=O)[C@H](CCCCN)NC(=O)[C@H](CCCNC(=N)N)NC(=O)[C@H](Cc1ccc(O)cc1)NC(=O)[C@H](CCC(N)=O)NC(=O)[C@@H]1CSSC[C@H](N)C(=O)N[C@@H](CC(=O)O)C(=O)N[C@@H](C)C(=O)N[C@@H]([C@@H](C)O)C(=O)N1)C(C)C)C(C)C)C(=O)N[C@@H](CCC(N)=O)C(=O)N[C@@H](CCCCN)C(=O)N[C@@H](CCCNC(=N)N)C(=O)N[C@@H](Cc1ccc(O)cc1)C(N)=O [compound 437] (H-CDATCQYRKGLVASLYKKVAMQKRY-NH2; disulfide 1-5)	> 100
CDATCQFRKAIDDCAGTARHSNVPGSVFKACMKQKKKEWKAG-NH2 (disulfide 1-5, 14-31) [compound 446]	1 to 100
ACDATCQFRKAIDDCQKQAHHSNVPGSVFKACMKQKKKEFKAG-NH2 (disulfide 2-6, 15-32) [compound 184]	0.01 to 1
CC[C@H](C)[C@H](NC(=O)[C@H](C)NC(=O)[C@H](CCCCN)NC(=O)[C@H](CCCNC(=N)N)NC(=O)[C@H](Cc1ccccc1)NC(=O)[C@H](CCC(N)=O)NC(=O)[C@@H]1CSSC[C@H](N)C(=O)N[C@@H](CC(=O)O)C(=O)N[C@@H](C)C(=O)N[C@@H]([C@@H](C)O)C(=O)N1)C(=O)N[C@@H](CC(=O)O)C(=O)N[C@@H](CC(=O)O)C(=O)N[C@H]1CSSC[C@@H](C(=O)N[C@@H](CCSC)C(=O)N[C@@H](CCCCN)C(=O)N[C@@H](CCC(N)=O)C(=O)N[C@@H](CCCCN)C(=O)N[C@@H](CCCCN)C(=O)N[C@@H](CCCCN)C(=O)N[C@@H](CCC(=O)O)C(=O)N[C@@H](Cc2c[nH]c3ccccc23)C(=O)N[C@@H](CCCCN)C(=O)N[C@@H](Cc2c[nH]cn2)C(=O)O)NC(=O)[C@H](C)NC(=O)[C@H](CCCCN)NC(=O)[C@H](Cc2ccccc2)NC(=O)[C@H](CO)NC(=O)[C@H](Cc2c[nH]cn2)NC(=O)[C@H](Cc2ccc(O)cc2)NC(=O)[C@H](C)NC(=O)[C@H](CCC(N)=O)NC(=O)[C@H](CCCNC(=N)N)NC(=O)[C@H](C)NC1=O [compound 450] (H-CDATCQFRKAIDDCARQAYHSFKACMKQKKKEWKH-OH; disulfide 1-5, 14-25)	1 to 100
MCDATCQFRKAIDDCQKQAHHSNVPGSVFKACMKQKKKEFKAGHHHHHH (disulfide 2-6, 15-32) [compound 204]	0.01 to 1
CC[C@H](C)[C@H](NC(=O)[C@H](C)NC(=O)[C@H](CCCCN)NC(=O)[C@H](CCCNC(=N)N)NC(=O)[C@H](Cc1ccccc1)NC(=O)[C@H](CCC(N)=O)NC(=O)[C@@H]1CSSC[C@H](N)C(=O)N[C@@H](CC(=O)O)C(=O)N[C@@H](C)C(=O)N[C@@H]([C@@H](C)O)C(=O)N1)C(=O)N[C@@H](CC(=O)O)C(=O)N[C@@H](CC(=O)O)C(=O)N[C@H]1CSSC[C@@H](C(=O)N[C@@H](CCSC)C(=O)N[C@@H](CCCCN)C(=O)N[C@@H](CCC(N)=O)C(=O)N[C@@H](CCCCN)C(=O)N[C@@H](CCCCN)C(=O)N[C@@H](CCCCN)C(=O)N[C@@H](CCC(=O)O)C(=O)N[C@@H](Cc2c[nH]c3ccccc23)C(=O)N[C@@H](CCCCN)C(=O)N[C@@H](C)C(=O)NCC(N)=O)NC(=O)[C@H](C)NC(=O)[C@H](CCCCN)NC(=O)[C@H](Cc2ccccc2)NC(=O)[C@H](C(C)C)NC(=O)[C@H](CO)NC(=O)[C@H](CO)NC(=O)[C@H](Cc2c[nH]cn2)NC(=O)[C@H](CO)NC(=O)[C@H](C)NC(=O)[C@H](CCC(N)=O)NC(=O)[C@H](CCCNC(=N)N)NC(=O)[C@H](C)NC1=O [compound 433] (H-CDATCQFRKAIDDCARQASHSSVFKACMKQKKKEWKAG-NH2; disulfide 1-5, 14-27)	< 0.01
CC[C@H](C)[C@H](NC(=O)[C@H](C)NC(=O)[C@H](CCCCN)NC(=O)[C@H](CCCNC(=N)N)NC(=O)[C@H](Cc1ccccc1)NC(=O)[C@H](CCC(N)=O)NC(=O)[C@@H]1CSSC[C@H](N)C(=O)N[C@@H](CC(=O)O)C(=O)N[C@@H](C)C(=O)N[C@@H]([C@@H](C)O)C(=O)N1)C(=O)N[C@@H](CC(=O)O)C(=O)N[C@@H](CC(=O)O)C(=O)N[C@H]1CSSC[C@@H](C(=O)N[C@@H](CCSC)C(=O)N[C@@H](CCCCN)C(=O)N[C@@H](CCC(N)=O)C(=O)N[C@@H](CCCCN)C(=O)N[C@@H](CCCCN)C(=O)N[C@@H](CCCCN)C(=O)N[C@@H](CCC(=O)O)C(=O)N[C@@H](Cc2c[nH]c3ccccc23)C(=O)N[C@@H](CCCCN)C(=O)N[C@@H](C)C(=O)NCC(=O)N[C@@H](Cc2c[nH]cn2)C(=O)O)NC(=O)[C@H](C)NC(=O)[C@H](CCCCN)NC(=O)[C@H](Cc2ccccc2)NC(=O)[C@H](Cc2ccc(O)cc2)NC(=O)[C@H](C)NC(=O)[C@H](CCC(N)=O)NC(=O)[C@H](CCCNC(=N)N)NC(=O)[C@H](C)NC1=O [compound 448] (H-CDATCQFRKAIDDCARQAYFKACMKQKKKEWKAGH-OH; disulfide 1-5, 14-23)	< 0.01
